We go through 13 molecules from PubChem BioAssay (NCI).

Molecules are shown by their SMILES.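 Step 1: Grow cells in 96-well plates. Step 2: Expose to compound for 48 hours at 5 concentrations. Step 3: Interpolate endpoints linearly; if unreached, use highest concentration. TGI is the concentration that stops growth completely.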 A value given as a limit tells only on which side of the number the result lay.

Experiment in all cases: DTP human tumour cell line panel, 48 h
In experiment [1] the test system is MCF7 breast.
The subject of experiment [2] is HL-60(TB) leukemia.
For experiment [3], the system named is HS 578T breast.
The subject of experiment [4] is OVCAR-8 ovarian.
Experiment [5] concerns NCI-H522 lung.
In experiment [6] the test system is SNB-19 CNS.
The test system of experiment [7] is EKVX NSCLC.
For experiment [8], the system named is IGROV1 ovarian.
Experiment [9] relates to UO-31 renal.
The test system of experiment [10] is HCT-116 colon.
For experiment [11], the system named is HCT-15 colon.
For experiment [12], the system named is HOP-92 NSCLC.

As usually defined, the TGI is the concentration at which net growth stops. A higher TGI goes with lower sensitivity of the cells.

Consider `CN1CCc2c([nH]c3ccccc23)C1`, for which the TGI in experiment [1], in experiment [2], in experiment [3], in [4], in experiment [5] and in experiment [6] was more than 100 µM each time. For the same molecule, the total growth inhibition concentration (TGI) in [7], in experiment [8], in experiment [9], in experiment [10] and in experiment [11] was more than 100 µM each time.
On to `Cc1ccc2c(c1)C(=S)N1CSCC1c1nncn1-2` (stereo not given), for which the concentration for total growth inhibition (TGI) in experiment [1], in experiment [3], in [4], in [5], in [6] and in experiment [7] was more than 100 µM throughout. Also, the TGI in experiment [8], in experiment [9], in experiment [10] and in experiment [11] was more than 100 µM in each case.
Regarding `CC(=O)OC1/C=C(\C)C(OC(C)=O)C/C=C(/C)CCC2C(/C=C/C1=O)C2(C)C` (stereo not given), the concentration for total growth inhibition (TGI) in [12], in [4], in experiment [5], in experiment [6], in experiment [7] and in [8] was more than 100 µM each time. Further, the concentration for total growth inhibition (TGI) in [9], in experiment [10] and in experiment [11] was more than 100 µM each time.
Turning to `COc1cc(C2C3C=CC=C4CC=CC(=C43)C3CCC(=O)N32)cc(OC)c1OC` (stereo not given), the TGI in [1], in experiment [2], in [12], in experiment [4], in [5] and in [6] was more than 100 µM in each case. For the same molecule, the total growth inhibition concentration (TGI) in [7], in experiment [8], in experiment [9], in [10] and in experiment [11] was more than 100 µM in each case.
Consider `Cn1c(=O)c2c(ncn2CCNC(CO)C(O)c2ccc([N+](=O)[O-])cc2)n(C)c1=O` (stereo not given), for which the TGI in experiment [1], in [2], in experiment [12], in experiment [4], in [5] and in [6] was more than 100 µM in each case. In addition, the total growth inhibition concentration (TGI) in [7], in [9], in experiment [10] and in experiment [11] was more than 100 µM each time.
`COC(=O)/C=C(\C(=O)OC)C1C(=O)Oc2c(C)c(=O)c3ccccc3n21` (stereo not given): the TGI in [1], in experiment [2], in experiment [3], in experiment [4], in experiment [5] and in [6] was more than 100 µM each time. The TGI in experiment [7], in experiment [8], in experiment [10] and in experiment [11] was more than 100 µM in each case.
As for `CCCCCCNc1n[nH]c(=O)c2c1nnn2Cc1ccccc1`, the total growth inhibition concentration (TGI) in experiment [1], in [2], in experiment [12], in [4], in [6] and in experiment [7] was more than 100 µM each time. The TGI in [9], in experiment [10] and in [11] was more than 100 µM in each case.
Regarding `CC1CC(OP(=O)(OCc2ccccc2)OCc2ccccc2)[C@@H](OCc2ccccc2)C(OCc2ccccc2)C1OCc1ccccc1` (stereo not given in full), the TGI in experiment [1], in [2], in [3], in experiment [4], in experiment [5] and in experiment [6] was more than 100 µM in each case. The total growth inhibition concentration (TGI) in experiment [7], in experiment [8], in [9], in [10] and in experiment [11] was more than 100 µM in each case.
For the molecule `N#Cc1n[nH]n(-c2ccc(Br)cc2)c1=O`, the concentration for total growth inhibition (TGI) in [1], in experiment [2], in experiment [3], in experiment [4], in [5] and in [6] was more than 100 µM in each case. Further, the concentration for total growth inhibition (TGI) in experiment [7], in experiment [8], in [9], in [10] and in [11] was more than 100 µM throughout.
On to `Cc1ccc(C2SCC(=O)N2c2ccc(-n3c(-c4ccccc4)nc4ccccc4c3=O)cc2)cc1` (stereo not given), for which the TGI in experiment [1] is more than 100 µM; in experiment [2], 64.4 µM; in [12], 51.6 µM; in experiment [3] it was 77.9 µM; in [4] it was more than 100 µM; in experiment [5], 58.6 µM. For the same molecule, the TGI is more than 100 µM in experiment [6]; 90.7 µM in experiment [8]; 59.1 µM in [9]; 23.1 µM in [10]; 52 µM in experiment [11].
As for `Cc1ccc(S(=O)(=O)c2[nH]cc(/C(=C\C3CCCCC3)[N+](=O)[O-])c2C2CCCCC2)cc1`, the TGI in experiment [1] is more than 100 µM; in experiment [12] it was 3.99 µM; in experiment [4], 2.78 µM; in experiment [5], 0.541 µM; in [6], 3.98 µM; in experiment [7], 1.4 µM. Moreover, the TGI worked out at 1.13 µM in experiment [8], 1.32 µM in [9], 0.468 µM in experiment [10] and 0.46 µM in [11].
For the molecule `C[n+]1c2ccc(Cl)cc2nc2cc(-c3ccccc3)ccc21`, the concentration for total growth inhibition (TGI) came out at 4.52 µM in experiment [1]; 10.7 µM in experiment [2]; 65 µM in experiment [3]; 16 µM in [4]; 37.9 µM in experiment [5]; 9.59 µM in experiment [6]. Besides, the concentration for total growth inhibition (TGI) in [7] is 29.9 µM; in experiment [8] it was 35.4 µM; in [9], 48.7 µM; in experiment [10], more than 100 µM; in experiment [11], 39 µM.
On to `CCN(CC)Cc1ccc(C(=S)Nc2ccc(Cl)cc2)s1`, for which the concentration for total growth inhibition (TGI) in [1] is 25.5 µM; in experiment [2], 10.5 µM; in experiment [3], 32.5 µM; in [4], 18.2 µM; in experiment [5] it was 25 µM; in experiment [6], 31.6 µM. Moreover, the total growth inhibition concentration (TGI) in [7] was 19.4 µM; in [8], 24.1 µM; in experiment [9], 23.5 µM; in [10] it was 22.9 µM; in [11] it was 23 µM.
